One experiment deals with IL-17A gene expression. The experiment can be described thus: Effect on IL-23-induced IL-17A gene expression in mice. The format is in vivo. The conditions noted are these: Balb/c mice, ear tissue 24 hr after intradermal IL-23; 100 mg/kg orally 30 min before and 8 hr after IL-23; versus the negative control group. The method, then:
Effect on IL-23-Induced IL-17A Gene Expression in Mice
A mouse IL-23 solution (500 ng/10 μL, prepared by Takeda Pharmaceutical Company Limited) or PBS (10 μL, negative control group) was administered intradermally in the ear of Balb/c mice (Charles River Japan, male, 7 weeks old). Twenty-four hr after administration, the ear was resected under isoflurane anesthesia. The test compound was suspended in 0.5% methylcellulose and administered orally 30 min before and 8 hr after IL-23 administration.
RNA extraction from the ear tissue and quantitative PCR were performed as follows. Specifically, ear tissue 5 mm in diameter was punched from an area of the resected ear centering on the IL-23 injection site, and the tissue was immersed in RNAlater (QIAGEN) for at least 18 hr. The RNAlater-treated ear tissue was homogenized in 350 μL of RLT buffer (RNeasy mini kit, QIAGEN) and treated (55° C., 10 min) with Proteinase K (QIAGEN). Total RNA was then extracted according to the RNeasy mini kit protocol. The RNA thus obtained was then reverse transcribed into cDNA using the High-Capacity RNA-to-cDNA kit (Applied Biosystems), and the amount of each cytokine expressions was measured by real-time PCR (Viia7™, Applied Biosystems). The PCR buffer used was TaqMan Fast Advanced Master Mix (Applied Biosystems), and TaqMan Gene Expression Assays (Applied Biosystems) Mm00439618 m1 (IL-17A) and 4352341E (β-actin) were used for cytokine gene detection. The IL-17A gene expression level was normalized to the β-actin gene expression level, and the percent inhibition of IL-17A gene expression with the test compound was then calculated.
The results obtained with the above-described method (percent inhibition of IL-17A gene expression with oral administration of the test compound) are shown in Table 3.

The subject of experiment [1] is mouse model of IL-23-induced psoriasis. The experiment can be described thus: Effect in a mouse model of IL-23-induced psoriasis. The format is in vivo. The conditions noted are these: Balb/c mice, 100 mg/kg orally twice daily, versus the negative control group. The protocol:
Effect in a Mouse Model of IL-23-Induced Psoriasis
Mouse IL-23 (500 ng/15 μL, R&D) or PBS (15 μL, negative control group) was administered intradermally in the ear of Balb/c mice (Charles River Japan, male, 7 weeks old) 5 times every other days. Seven hr after IL-23 administration at 8 days after the initial administration (final administration), the mice were anesthetized with isoflurane, and ear thickness was measured with calipers. After the ear thickness was measured, the ear was resected, the tissue 8 mm in diameter was punched from an area centering on the IL-23 injection site, and the tissue was weighed. […]
The change in ear thickness in this model was evaluated by calculating the difference in measured thickness between before IL-23 administration and 7 hr after the final IL-23 administration.
The amount of IL-17 in the ear tissue was performed as follows. […] The homogenized solution was centrifuged, and the amount of IL-17 in the supernatant was measured using ELISA kit (R&D), and the amount of protein in the supernatant was measured using pierce BCA protein assay kit (Thermo scientific). The amount of IL-17 in each ear tissue was normalized to the amount of protein, and the percent inhibition of IL-17A production with the test compound was then calculated. […]

The target in experiment [2] is T1, RORγt (Homo sapiens, UniProt P51449).
T1 sequence (P51449 1-497 isoform P51449-2): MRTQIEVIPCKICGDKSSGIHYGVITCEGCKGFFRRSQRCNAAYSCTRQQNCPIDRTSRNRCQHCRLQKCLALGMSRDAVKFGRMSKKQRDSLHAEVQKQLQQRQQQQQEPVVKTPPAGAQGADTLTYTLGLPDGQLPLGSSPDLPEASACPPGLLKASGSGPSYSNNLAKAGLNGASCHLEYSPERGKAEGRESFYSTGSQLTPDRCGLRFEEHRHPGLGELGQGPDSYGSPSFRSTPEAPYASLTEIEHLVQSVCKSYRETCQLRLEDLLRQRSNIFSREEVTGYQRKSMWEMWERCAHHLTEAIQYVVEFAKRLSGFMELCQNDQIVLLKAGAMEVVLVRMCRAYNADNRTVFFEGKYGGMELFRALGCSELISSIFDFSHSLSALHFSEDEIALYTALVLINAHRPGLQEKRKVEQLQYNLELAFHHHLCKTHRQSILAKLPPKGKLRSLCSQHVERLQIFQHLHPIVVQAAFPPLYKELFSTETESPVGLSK
Briefly: RORγt binding test (TR-FRET, fluorescent-labeled cholesterol). The following applies: read-out: binding inhibitory rate (%) of fluorescent-labeled cholesterol to RORγt at test compound 1 μM. The method in brief: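 His-tagged RORγt and BODIPY-cholesterol were incubated with compound for 20 min at room temperature in Tris-HCl pH 7.5, 100 mM NaCl, 1 mM DTT and 0.1% BSA. Terbium anti-His antibody was then added for a further 20 min.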
(In TR-FRET formats the signal depends on donor and acceptor labels being close together.)

In experiment [3] the target is T1, RORγt. Briefly: Cofactor recruitment test (Alpha Screen, biotinylated SRC-1 peptide). The format is biochemical. The conditions noted are these: read-out: signal value inhibitory rate (%) at test compound 1 μM. The method, then:
Cofactor Recruitment Test
Cofactor recruitment test was performed by Alpha Screen (Histidine Detection Kit, PerkinElmer) method. First, a test compound was diluted with an assay buffer (50 mM Tris-HCl (pH 7.5), 50 mM KCl, 1 mM DTT, 0.1% BSA) and added to a 384 well plate by 5 μL. […] The mixture was stood in a dark place for 1 hr, and the signal value was measured by Envision (PerkinElmer).

For experiment [4], the target named is T1, RORγt. Briefly: Jurkat reporter test (human IL-17 ROR response element luciferase reporter). Type of experiment: cell-based. The following applies: read-out: luminescence level inhibitory rate (%) at test compound 3 μM. In outline:
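Jurkat cells were electroporated (1350 V, 10 ms, 3 pulses) with reporter constructs, then cultured overnight with compound in RPMI containing 10% lipid-reduced FCS, 10 mM HEPES pH 7.5 and 5 μM lovastatin. Luciferase was quantified by Bright-Glo luminescence after 10 min at room temperature.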

4 molecules from patent US11851449B2, “Heterocyclic amide compounds having an RORvt inhibitory action” (TAKEDA PHARMACEUTICAL COMPANY LIMITED, priority 2013, dated 2023) can be followed below.

Molecules are shown by their SMILES. Like-named read-outs stand apart in the source and are kept apart here.

For `COc1ccc([C@H](C(=O)Nc2ccc([Si](C)(C)C)cc2)N(C)C(=O)c2cc(O)no2)cc1` [Example 14, 3-hydroxy-N-((1R)-1-(4-methoxyphenyl)-2-oxo-2-((4-(trimethylsilyl)phenyl)amino)ethyl)-N-methyl-1,2-oxazole-5-carboxamide], in the experiment on IL-17A gene expression, the “percent inhibition of IL-17A gene expression” value was 53%.

As to `COc1ccc([C@H](C(=O)Nc2cc(F)c([Si](C)(C)C)c(F)c2)N(C)C(=O)c2cc(O)no2)cc1` [Example 23, N-((1R)-2-((3,5-difluoro-4-(trimethylsilyl)phenyl)amino)-1-(4-methoxyphenyl)-2-oxoethyl)-3-hydroxy-N-methyl-1,2-oxazole-5-carboxamide], the “percent inhibition of IL-17A gene expression” value with IL-17A gene expression was found to be 71%.

For the molecule `COc1ccc([C@H](C(=O)Nc2ccc([Si](C)(C)C)c(F)c2)N(C)C(=O)c2cc(O)no2)cc1` [Example 24, N-((1R)-2-((3-fluoro-4-(trimethylsilyl)phenyl)amino)-1-(4-methoxyphenyl)-2-oxoethyl)-3-hydroxy-N-methyl-1,2-oxazole-5-carboxamide], in experiment [1] (IL-23 intradermally in the ear 5 times every other day), the “percent inhibition of ear thickness” value is listed as 76%. In addition, the “percent inhibition of IL-17 production” value in experiment [1] (ear tissue, ELISA normalized to protein) came out at 96%. Besides, the inhibition at 1 µM on RORγt [2] was found to be 102%; on RORγt [3], 95.3%. Besides, the “percent inhibition of IL-17A gene expression” value with IL-17A gene expression was 65%. Further, the inhibition at 3 µM at RORγt [4] (Jurkat) stood at 100%.

Take `COCc1ccc([C@@H](NC(=O)Cc2cc(O)no2)C(=O)Nc2ccc(C(C)(C)C)c(F)c2)cc1` [Example 106, (2R)—N-(4-tert-butyl-3-fluorophenyl)-2-(((3-hydroxy-1,2-oxazol-5-yl)acetyl)amino)-2-(4-(methoxymethyl)phenyl)acetamide]: the inhibition at 1 µM on RORγt [2] amounted to 103%; at RORγt [3], 88%. Also, the “percent inhibition of IL-17A gene expression” value in the experiment on IL-17A gene expression is on record as 43%. The inhibition at 3 µM on RORγt [4] (test compound 3 μM, Jurkat cells) was 99.8%.
